According to patent US12077503B2, “Substituted cyclic amides and their use as herbicides” (FMC CORPORATION, priority 2015, dated 2024):

Legend:
Assay type in all cases: in vivo
[1] = tested on: barnyardgrass (Echinochloa crus-galli); assay: Test G Pre-Emergence Protocol; conditions: Echinochloa crus-galli, pre-emergence, 312 h, evaluated after 13 days; for pest or weed control at 15.625 g/ha: 15.625 g ai/ha, read-out: Barnyard grass damage rating (100=total damage to plant; 0=no damage to plant); for pest or weed control at 62.5 g/ha: 62.5 g ai/ha, 100=total damage to plant, 0=no damage to plant, read-out: plant damage rating, Barnyardgrass; for pest or weed control at 250 g/ha: 250 g ai/ha, read-out: Barnyardgrass damage rating (100=total damage to plant; 0=no damage to plant)
Summary of the method: (§1)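 Pre-emergence spray, 15.625/62.5/250 g/ha, vehicle acetone:water 50:50 + 0.5% Tween 20, applied 1 d after sowing. Glasshouse 24/16° C, 14 h light, 65% RH, watered twice daily. Visual damage rating at 13 d, 0–100 scale.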

[2] = tested on: ivy-leaved morning glory (Ipomoea hederacea); assay: Test G Pre-Emergence Protocol; conditions: Ipomoea, pre-emergence, 312 h, evaluated after 13 days; for pest or weed control at 15.625 g/ha: 15.625 g ai/ha, read-out: Morning-glory, Ivy-leaved damage rating (100=total damage to plant; 0=no damage to plant); for pest or weed control at 62.5 g/ha: 62.5 g ai/ha, 100=total damage to plant, 0=no damage to plant, read-out: plant damage rating, Morningglory, Ivy-leaved; for pest or weed control at 250 g/ha: 250 g ai/ha, read-out: Morningglory, Ivy-leaved damage rating (100=total damage to plant; 0=no damage to plant)
Summary of the method: as §1

[3] = tested on: giant foxtail (Setaria faberi); assay: Test G Pre-Emergence Protocol; conditions: Setaria faberi, pre-emergence, 312 h, evaluated after 13 days; for pest or weed control at 15.625 g/ha: 15.625 g ai/ha; for pest or weed control at 15.625 g/ha / pest or weed control at 250 g/ha: read-out: Foxtail, Giant damage rating (100=total damage to plant; 0=no damage to plant); for pest or weed control at 62.5 g/ha: 62.5 g ai/ha, 100=total damage to plant, 0=no damage to plant, read-out: plant damage rating, Foxtail, Giant; for pest or weed control at 250 g/ha: 250 g ai/ha
Summary of the method: as §1

[4] = tested on: redroot pigweed (Amaranthus retroflexus); assay: Test G Pre-Emergence Protocol; conditions: Amaranthus retroflexus, pre-emergence, 312 h, evaluated after 13 days; for pest or weed control at 15.625 g/ha: 15.625 g ai/ha; for pest or weed control at 15.625 g/ha / pest or weed control at 250 g/ha: read-out: Pigweed, Redroot damage rating (100=total damage to plant; 0=no damage to plant); for pest or weed control at 62.5 g/ha: 62.5 g ai/ha, 100=total damage to plant, 0=no damage to plant, read-out: plant damage rating, Pigweed, Redroot; for pest or weed control at 250 g/ha: 250 g ai/ha
Summary of the method: as §1

corn (Zea mays) [5] = assay: Test G Pre-Emergence Protocol; conditions: Zea mays, pre-emergence, 312 h, evaluated after 13 days; for plant injury at 15.625 g/ha: 15.625 g ai/ha; for plant injury at 15.625 g/ha / plant injury at 250 g/ha: read-out: Corn damage rating (100=total damage to plant; 0=no damage to plant); for plant injury at 62.5 g/ha: 62.5 g ai/ha, 100=total damage to plant, 0=no damage to plant, read-out: plant damage rating, Corn; for plant injury at 250 g/ha: 250 g ai/ha
Summary of the method: as §1

[6] = tested on: velvetleaf (Abutilon theophrasti); assay: Test G Pre-Emergence Protocol; conditions: Abutilon theophrasti, pre-emergence, 312 h, evaluated after 13 days; for pest or weed control at 15.625 g/ha: 15.625 g ai/ha; for pest or weed control at 15.625 g/ha / pest or weed control at 250 g/ha: read-out: Velvetleaf damage rating (100=total damage to plant; 0=no damage to plant); for pest or weed control at 62.5 g/ha: 62.5 g ai/ha, 100=total damage to plant, 0=no damage to plant, read-out: plant damage rating, Velvetleaf; for pest or weed control at 250 g/ha: 250 g ai/ha
Summary of the method: as §1

[7] = tested on: barnyardgrass (Echinochloa crus-galli); assay: Test G Post-Emergence Protocol; conditions: Echinochloa crus-galli, post-emergence, 312 h; for pest or weed control at 15.625 g/ha: 15.625 g ai/ha, evaluated after 13 days (100=total damage to plant; 0=no damage to plant), read-out: Barnyardgrass damage rating; for pest or weed control at 62.5 g/ha: 62.5 g ai/ha, read-out: Barnyardgrass damage rating (100=total damage to plant; 0=no damage to plant); for pest or weed control at 62.5 g/ha / pest or weed control at 250 g/ha: evaluated after 13 days; for pest or weed control at 250 g/ha: 250 g ai/ha, read-out: damage to plant, Barnyardgrass (100=total damage to plant; 0=no damage to plant)
Summary of the method: (§2)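 Eight days post-sowing, plants received a spray of test compound (acetone/water 50:50, 0.5% Tween 20) at 15.625, 62.5 or 250 g/ha. Glasshouse regime thereafter: 24/16 °C, 14 h light, 65% humidity. Assessment after 13 days on a 0–100 damage scale.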

[8] = tested on: ivy-leaved morning glory (Ipomoea hederacea); assay: Test G Post-Emergence Protocol; conditions: Ipomoea, post-emergence, 312 h; for pest or weed control at 15.625 g/ha: 15.625 g ai/ha, evaluated after 13 days (100=total damage to plant; 0=no damage to plant), read-out: Morningglory, Ivy-leaved damage rating; for pest or weed control at 62.5 g/ha: 62.5 g ai/ha, read-out: Morningglory, Ivy-leaved damage rating (100=total damage to plant; 0=no damage to plant); for pest or weed control at 62.5 g/ha / pest or weed control at 250 g/ha: evaluated after 13 days; for pest or weed control at 250 g/ha: 250 g ai/ha, read-out: damage to plant, Morningglory, Ivy-leaved (100=total damage to plant; 0=no damage to plant)
Summary of the method: as §2

[9] = tested on: giant foxtail (Setaria faberi); assay: Test G Post-Emergence Protocol; conditions: Setaria faberi, post-emergence, 312 h; for pest or weed control at 15.625 g/ha: 15.625 g ai/ha, evaluated after 13 days (100=total damage to plant; 0=no damage to plant), read-out: Foxtail, Giant damage rating; for pest or weed control at 62.5 g/ha: 62.5 g ai/ha, read-out: Foxtail, Giant damage rating (100=total damage to plant; 0=no damage to plant); for pest or weed control at 62.5 g/ha / pest or weed control at 250 g/ha: evaluated after 13 days; for pest or weed control at 250 g/ha: 250 g ai/ha, read-out: damage to plant, Foxtail, Giant (100=total damage to plant; 0=no damage to plant)
Summary of the method: as §2

[10] = tested on: redroot pigweed (Amaranthus retroflexus); assay: Test G Post-Emergence Protocol; conditions: Amaranthus retroflexus, post-emergence, 312 h; for pest or weed control at 15.625 g/ha: 15.625 g ai/ha, evaluated after 13 days (100=total damage to plant; 0=no damage to plant), read-out: Pigweed, Redroot damage rating; for pest or weed control at 62.5 g/ha: 62.5 g ai/ha, read-out: Pigweed, Redroot damage rating (100=total damage to plant; 0=no damage to plant); for pest or weed control at 62.5 g/ha / pest or weed control at 250 g/ha: evaluated after 13 days; for pest or weed control at 250 g/ha: 250 g ai/ha, read-out: damage to plant, Pigweed, Redroot (100=total damage to plant; 0=no damage to plant)
Summary of the method: as §2

corn (Zea mays) [11] = assay: Test G Post-Emergence Protocol; conditions: Zea mays, post-emergence, 312 h; for plant injury at 15.625 g/ha: 15.625 g ai/ha, evaluated after 13 days (100=total damage to plant; 0=no damage to plant), read-out: Corn damage rating; for plant injury at 62.5 g/ha: 62.5 g ai/ha, read-out: Corn damage rating (100=total damage to plant; 0=no damage to plant); for plant injury at 62.5 g/ha / plant injury at 250 g/ha: evaluated after 13 days; for plant injury at 250 g/ha: 250 g ai/ha, read-out: damage to plant, Corn (100=total damage to plant; 0=no damage to plant)
Summary of the method: as §2

[12] = tested on: velvetleaf (Abutilon theophrasti); assay: Test G Post-Emergence Protocol; conditions: Abutilon theophrasti, post-emergence, 312 h; for pest or weed control at 15.625 g/ha: 15.625 g ai/ha, evaluated after 13 days (100=total damage to plant; 0=no damage to plant), read-out: Velvetleaf damage rating; for pest or weed control at 62.5 g/ha: 62.5 g ai/ha, read-out: Velvetleaf damage rating (100=total damage to plant; 0=no damage to plant); for pest or weed control at 62.5 g/ha / pest or weed control at 250 g/ha: evaluated after 13 days; for pest or weed control at 250 g/ha: 250 g ai/ha, read-out: damage to plant, Velvetleaf (100=total damage to plant; 0=no damage to plant)
Summary of the method: as §2

Row | Structure (SMILES) | pest or weed control at 15.625 g/ha [1] | pest or weed control at 62.5 g/ha [1] | pest or weed control at 250 g/ha [1] | pest or weed control at 15.625 g/ha [2] | pest or weed control at 62.5 g/ha [2] | pest or weed control at 250 g/ha [2] | pest or weed control at 15.625 g/ha [3] | pest or weed control at 62.5 g/ha [3] | pest or weed control at 250 g/ha [3] | pest or weed control at 15.625 g/ha [4] | pest or weed control at 62.5 g/ha [4] | pest or weed control at 250 g/ha [4] | plant injury at 15.625 g/ha (corn (Zea mays) [5]) | plant injury at 62.5 g/ha (corn (Zea mays) [5]) | plant injury at 250 g/ha (corn (Zea mays) [5]) | pest or weed control at 15.625 g/ha [6] | pest or weed control at 62.5 g/ha [6] | pest or weed control at 250 g/ha [6] | pest or weed control at 15.625 g/ha [7] | pest or weed control at 62.5 g/ha [7] | other results
1 | CN1C[C@H](c2ccc(F)c(C#N)c2)[C@@H](C(=O)Nc2ccccc2F)C1=O (racemic) [Compound 1468] | 10% | 70% | 80% | 0% | 0% | 0% | 80% | 80% | 90% | 0% | 0% | 0% | 0% | 0% | 0% | 0% | 0% | 0% | 10% | 50% | pest or weed control at 250 g/ha [7]: 40%; pest or weed control at 15.625 g/ha [8]: 10%; pest or weed control at 62.5 g/ha [8]: 0%; pest or weed control at 250 g/ha [8]: 10%; pest or weed control at 15.625 g/ha [9]: 30%; pest or weed control at 62.5 g/ha [9]: 70%; pest or weed control at 250 g/ha [9]: 70%; pest or weed control at 15.625 g/ha [10]: 10%; pest or weed control at 62.5 g/ha [10]: 0%; pest or weed control at 250 g/ha [10]: 30%; plant injury at 15.625 g/ha (corn (Zea mays) [11]): 10%; plant injury at 62.5 g/ha (corn (Zea mays) [11]): 10%; plant injury at 250 g/ha (corn (Zea mays) [11]): 10%; pest or weed control at 15.625 g/ha [12]: 0%; pest or weed control at 62.5 g/ha [12]: 0%; pest or weed control at 250 g/ha [12]: 10%
2 | CN1C[C@@H](c2ccc(C(F)(F)F)cc2)[C@H](C(=O)Nc2cccc(F)c2)C1=O (racemic) [Compound 1623] | 10% | 30% | 60% | 10% | 10% | 10% | 20% | 60% | 80% | 10% | 10% | 50% | 10% | 0% | 10% | 10% | 0% | 50% | 10% | 70% | pest or weed control at 250 g/ha [7]: 80%; pest or weed control at 15.625 g/ha [8]: 30%; pest or weed control at 62.5 g/ha [8]: 30%; pest or weed control at 250 g/ha [8]: 60%; pest or weed control at 15.625 g/ha [9]: 30%; pest or weed control at 62.5 g/ha [9]: 70%; pest or weed control at 250 g/ha [9]: 80%; pest or weed control at 15.625 g/ha [10]: 10%; pest or weed control at 62.5 g/ha [10]: 20%; pest or weed control at 250 g/ha [10]: 60%; plant injury at 15.625 g/ha (corn (Zea mays) [11]): 0%; plant injury at 62.5 g/ha (corn (Zea mays) [11]): 0%; plant injury at 250 g/ha (corn (Zea mays) [11]): 30%; pest or weed control at 15.625 g/ha [12]: 0%; pest or weed control at 62.5 g/ha [12]: 0%; pest or weed control at 250 g/ha [12]: 20%
